Measured values taken from PMC5513865 (British Journal of Pharmacology, 2017).
Where “and” joins values, the source holds several entries; their conditions need not be identical. Equal entries are not always repeated. Structures can show the parent of a compound that is named as a salt.

Columns and labels:
C57BL/6J wild-type mice [1] = conditions: mouse, in vivo
C57BL/6J wild-type mice [2] = test system: C57BL/6J wild-type mice; design: method as in Aldrich et al., 2014; conditions: i.c.v.; ref Aldrich et al., 2014; cited from earlier work
human κ receptor [3] = target: human κ receptor; design: method as in Spetea et al., 2012; conditions: ref Spetea et al., 2012, read-out: binding affinity (Ki) for the κ receptor; cited from earlier work
[4] = test system: μ receptor gene-disrupted 'knockout' (μ-KO) mice; conditions: mouse, in vivo
human κ receptor [5] = target: T1, human κ receptor (Homo sapiens, UniProt P41145); assay: cell-based; assay type: cell-based; design: host or cells: U2OS (U2OS–hκ receptor–β‐arrestin2 cells), PathHunter eXpress
C57BL/6J wild-type mice [6] = assay: Rotorod assay to determine locomotor activity; assay type: in vivo, mouse; conditions: i.c.v., HS665 10 nmol, HS666 30 nmol (ED90); 10-60 min
δ receptor = target: δ receptor; design: method as in Spetea et al., 2012; conditions: ref Spetea et al., 2012; read-out: binding affinity for the δ receptor; cited from earlier work
human μ receptor = target: T2, human μ receptor (Homo sapiens, UniProt P35372); assay: [35S]-GTPγS binding assay, CHO-hμ membranes; assay type: biochemical; conditions: at concentrations up to 10 μM
T2 construct: expressed in transfected cells

human NOP receptor = target: T3, human NOP receptor (Homo sapiens, UniProt P41146); assay: [3H]-N/OFQ NOP receptor binding assay, CHO-hNOP membranes; conditions: up to a concentration of 10 μM
T3 construct: expressed in transfected cells

μ receptor = target: μ receptor; design: method as in Spetea et al., 2012; conditions: ref Spetea et al., 2012; read-out: binding affinity (Ki) for the μ receptor; cited from earlier work
[7] = test system: κ receptor gene-disrupted 'knockout' (κ-KO) mice; conditions: mouse, in vivo
human κ receptor [8] = test system: human κ receptor
human κ receptor [9] = target: T1, human κ receptor; assay: biochemical; assay type: biochemical; design: expressed in transfected cells
C57BL/6J wild-type mice [10] = conditions: mouse, in vivo; remark: listed apart in the source
mice = test system: mice; design: method as in Spetea et al., 2012; conditions: s.c., ref Spetea et al., 2012; cited from earlier work

T1 sequence (P41145 whole entry): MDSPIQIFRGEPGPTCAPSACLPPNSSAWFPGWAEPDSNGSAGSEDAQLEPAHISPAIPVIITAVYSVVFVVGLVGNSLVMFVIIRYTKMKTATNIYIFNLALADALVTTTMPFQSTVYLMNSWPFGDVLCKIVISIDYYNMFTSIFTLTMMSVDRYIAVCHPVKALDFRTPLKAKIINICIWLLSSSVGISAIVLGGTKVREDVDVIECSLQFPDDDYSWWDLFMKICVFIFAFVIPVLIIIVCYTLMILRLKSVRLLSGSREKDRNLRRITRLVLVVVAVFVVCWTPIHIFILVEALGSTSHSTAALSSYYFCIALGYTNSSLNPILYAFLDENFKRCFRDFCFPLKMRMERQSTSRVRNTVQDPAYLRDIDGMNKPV
T2 sequence (P35372 whole entry): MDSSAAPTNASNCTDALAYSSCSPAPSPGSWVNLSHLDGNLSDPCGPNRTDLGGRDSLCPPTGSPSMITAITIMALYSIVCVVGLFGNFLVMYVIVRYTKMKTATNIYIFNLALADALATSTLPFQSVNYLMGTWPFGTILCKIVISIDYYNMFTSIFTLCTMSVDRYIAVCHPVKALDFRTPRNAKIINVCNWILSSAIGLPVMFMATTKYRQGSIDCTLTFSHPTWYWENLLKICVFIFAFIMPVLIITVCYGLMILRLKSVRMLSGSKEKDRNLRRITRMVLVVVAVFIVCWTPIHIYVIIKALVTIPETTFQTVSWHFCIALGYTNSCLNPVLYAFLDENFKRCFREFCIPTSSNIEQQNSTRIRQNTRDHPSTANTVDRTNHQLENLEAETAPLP
T3 sequence (P41146 whole entry): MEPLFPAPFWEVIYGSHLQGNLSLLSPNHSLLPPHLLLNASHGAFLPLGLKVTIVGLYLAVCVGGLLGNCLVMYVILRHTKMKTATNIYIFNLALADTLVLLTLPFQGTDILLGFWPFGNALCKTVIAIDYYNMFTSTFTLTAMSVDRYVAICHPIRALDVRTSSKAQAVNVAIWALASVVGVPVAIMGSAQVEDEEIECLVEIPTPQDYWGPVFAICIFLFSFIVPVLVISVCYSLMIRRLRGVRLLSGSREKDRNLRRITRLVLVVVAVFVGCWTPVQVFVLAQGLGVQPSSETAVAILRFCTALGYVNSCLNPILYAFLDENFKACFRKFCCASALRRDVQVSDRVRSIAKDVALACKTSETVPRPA

| SMILES | conditioned place preference or aversion (C57BL/6J wild-type mice [1]) | antinociceptive activity in μ-KO mice compared with wild-type [4] | effect on motor performance (latency to fall) (C57BL/6J wild-type mice [6]) | G protein activation (agonist activity) at the μ receptor (human μ receptor) | affinity for the NOP receptor (human NOP receptor) | bias factor (G protein over β-arrestin2) (human κ receptor [8]) | inhibition of U69,593-stimulated [35S]-GTPγS coupling (human κ receptor [9]) | % antinociception (C57BL/6J wild-type mice [10]) [%] | other results |
| --- | --- | --- | --- | --- | --- | --- | --- | --- | --- |
| CN1CC[C@]23c4c5ccc(O)c4O[C@H]2[C@@H](O)C=C[C@H]3[C@H]1C5 [morphine, morphine sulfate, reference compound] | significant CPP |  |  |  |  |  |  |  | antinociceptive ED50 (C57BL/6J wild-type mice [2]): 2.35 nmol |
| Oc1cccc(CCN(CCc2ccccc2)CC2CC2)c1 [HS666] | neither significant preference nor aversion | not statistically altered | did not significantly impact motor performance | no agonist activity | no significant affinity | 62 | partially blocks | 1.00 ± 0.48 | Ki (human κ receptor [3]): 5.9 nM; EC50 (human κ receptor [5]): 449 ± 56 nM; log(τ/KA) β-arrestin2 (human κ receptor [5]): 3.52 ± 0.02; Emax (human κ receptor [5]; read-out: β-arrestin2 recruitment Emax): 24 ± 1%; Ki (δ receptor): > 10000 nM; Ki (μ receptor): 826 nM; antinociceptive activity in κ-KO mice compared with wild-type [7]: no antinociceptive activity; fold decrease in potency, [35S]-GTPγS assay versus PathHunter assay (human κ receptor [8]): 13 fold; ΔΔlog(τ/KA) G protein - β-arrestin2 (human κ receptor [8]): 1.79; EC50 (human κ receptor [9]): 35.7 ± 6 nM; agonist-stimulated [35S]-GTPγS binding in the presence of nor-BNI (human κ receptor [9]): significantly antagonized; log(τ/KA) G protein (human κ receptor [9]): 5.73 ± 0.29; Emax (human κ receptor [9]; read-out: G protein coupling Emax): 50 ± 4% |
| Oc1ccc2c3c1O[C@H]1c4[nH]c5c(c4C[C@@]4(O)[C@@H](C2)N(CC2CC2)CC[C@]314)C[C@@]1(O)[C@H]2Cc3ccc(O)c4c3[C@@]1(CCN2CC1CC1)[C@H]5O4 [nor-BNI, nor‐binaltorphimine, reference compound] |  |  |  |  |  |  | completely blocks coupling |  |  |
| Oc1cccc(CCN(CCc2ccccc2)CC2CCC2)c1 [HS665] | significant place aversion | not statistically altered | did not significantly impact motor performance | no agonist activity | no significant affinity | 389 |  | 1.97 ± 1.18 | κ receptor-mediated antinociceptive effects in the writhing test (mice): comparable with U50,488; antinociceptive ED50 and 95% C.I. (C57BL/6J wild-type mice [10]): 3.99 (3.14 – 5.33) nmol and 4.74 (3.72 – 6.41) nmol and 3.74 (2.98–4.78) nmol and 3.74 nmol |
